Bases are written 5' to 3'; sugars and linkages follow in the same order, as letters with counts (s phosphorothioate, o phosphodiester; PS: all linkages phosphorothioate). The collection does not say whether C is 5-methylated. l = locked nucleic acid (LNA); d = 2'-deoxy (DNA)

In the data set the target is Tau. Description: rat primary cortical neurons, FLIPR, 25 uM ASO.
Regarding “CTTAGCATCAGAGGTTTCAG (sugars l3 d14 l3, PS)”, the calcium oscillation score is 7.41 % of control. On to “TGATGGATGTTGCCTAATGA (sugars l3 d14 l3, PS)”, for which the calcium oscillation score was 0 % of control. The result for “CTTTATTTCCAAATTCACT (sugars l3 d11 l1 d1 l3, PS)” reads 116 % of control.

As for “TCATTCAGCCAATCACA (sugars l3 d11 l3, PS)”, the calcium oscillation score was 45.6 % of control. For the sequence “TCATAAATGACTATACTTAT (sugars l3 d14 l3, PS)”, the calcium oscillation score was 80.6 % of control. The result for “AGACCACATTTCCATCC (sugars l2 d13 l2, PS)” reads 72 % of control; that for “CCATCAGTCTTATCTCC (sugars l1 d14 l2, PS)”, 52.9 % of control; that for AAAGTACTATCCACTT (sugars l4 d8 l4, PS), 79.1 % of control. In the case of “CTACCCCATTTTTGACAT (sugars l3 d13 l2, PS)” it was 48.7 % of control; in that of “ACTTTATTTCCAAATTCACTTTTAC (sugars lldldddddddddddddddddlldl, PS)”, 29.5 % of control. In the case of “CCATTATCTCACTGCTT (sugars l3 d12 l2, PS)” it was 29.3 % of control; in that of CCGAATTTACACCCAA (sugars l2 d10 l4, PS), 79.1 % of control; in that of CAATCCTAAACAATGC (sugars l4 d8 l4, PS), 45.4 % of control. For TTGGGTGGAGTACGGA (sugars l3 d10 l3, PS), the calcium oscillation score is 0 % of control. Consider “TTATTTCCAAATTCACTTTT (sugars ldlllddddddddddlldll, PS)”, for which the calcium oscillation score was 70.3 % of control. In the case of CATGATTGTGGGCTT (sugars l3 d9 l3, PS) it was 0 % of control; in that of “TCAGCTTGTGGGTTTCAATC (sugars l3 d14 l3, PS)”, 13.3 % of control; in that of “TTGTAGACTATTTGCACACT (sugars l3 d14 l3, PS)”, 40.7 % of control.

In the case of “ACCCACTTTCCTAATTCCCA (sugars l1 d17 l2, PS)”, the calcium oscillation score was 76.6 % of control.

As for ACTGATCATAATCCTAC (sugars l4 d9 l4, PS), the calcium oscillation score is 68.2 % of control.

As for “ACTGGCGACTTGTACACGAT (sugars l3 d14 l3, PS)”, the calcium oscillation score is 0 % of control.

For “TATTAATTATCTGCACC (sugars l3 d10 l4, PS)”, the calcium oscillation score is 50.9 % of control. The result for CCGAACTGCGAGGAGC (sugars l3 d10 l3, PS) reads 5.43 % of control. Turning to “ATTCTCAGCACACCATT (sugars l4 d11 l2, PS)”, the calcium oscillation score was 41.3 % of control. In the case of “AGTTCCCACAATTCCTA (sugars l2 d13 l2, PS)” it was 38.7 % of control. In the case of “CACCCTTACACATAGCT (sugars l3 d12 l2, PS)” it was 55.6 % of control; in that of “TGATTAACCAATTAACCGAA (sugars l3 d14 l3, PS)”, 2.59 % of control; in that of GTGATGCAGGAGTTGT (sugars l3 d10 l3, PS), 13.5 % of control. In the case of “GGCCACCTCCTGGTTTATGA (sugars l3 d14 l3, PS)” it was 0 % of control; in that of TCCATTAGTCTCTTCA (sugars l3 d11 l2, PS), 65.1 % of control; in that of ACTGGTTAGCCCTAAA (sugars l3 d10 l3, PS), 3.83 % of control. As for “CTCGCGGAAGGTCAGCTTGT (sugars l3 d14 l3, PS)”, the calcium oscillation score was 2.91 % of control.

As for “TCCCAGCGTGATCTTCCATC (sugars l4 d11 l5, PS)”, the calcium oscillation score was 55.4 % of control. With CGACTTATCTATCCAT (sugars l4 d9 l3, PS), the calcium oscillation score was 46.2 % of control.

Consider “TAATTCATTTAATTCTCTTC (sugars l4 d12 l4, PS)”, for which the calcium oscillation score is 60.1 % of control. In the case of “TCTAAGTAGACCCTGGCCAC (sugars l3 d14 l3, PS)” it was 23.8 % of control. Take “CCAGATTCCCCAACTCAC (sugars l3 d13 l2, PS)”: the calcium oscillation score was 89 % of control. As for CGAACTGCGAGGAGCA (sugars l3 d10 l3, PS), the calcium oscillation score is 2.71 % of control. On to “CAAACAATCCATTTATATT (sugars l4 d11 l4, PS)”, for which the calcium oscillation score is 69.3 % of control. The result for CTGGACGTTGCTAAGA (sugars l3 d10 l3, PS) reads 0 % of control; that for TGTTGCCTAATGAGCC (sugars l3 d10 l3, PS), 172 % of control; that for “CCCATCAATTTGGAAAGATG (sugars l3 d14 l3, PS)”, 58.1 % of control.

On to GACCCTTTTTCTTAAC (sugars l4 d10 l2, PS), for which the calcium oscillation score is 59.1 % of control.

As for TTAACCGAACTGCGAG (sugars l3 d10 l3, PS), the calcium oscillation score was 46.1 % of control. For the sequence “CTCAAATCAAACTAATATT (sugars l4 d11 l4, PS)”, the calcium oscillation score was 98.6 % of control. The result for TTTGTCATCGCTTCCA (sugars l3 d10 l3, PS) reads 20.7 % of control; that for “ATTCATAAATGACTATACTT (sugars l3 d14 l3, PS)”, 68.5 % of control; that for “CCAATTATCTTTAAATTCTA (sugars l4 d13 l3, PS)”, 70.7 % of control. For the sequence GAGGCACAAGTCCTTA (sugars l3 d10 l3, PS), the calcium oscillation score is 76.2 % of control.

On to AATTTCTCTAATTGTCC (sugars l4 d9 l4, PS), for which the calcium oscillation score was 69 % of control. The result for “AAATATCCTTACCATCCTAT (sugars l2 d15 l3, PS)” reads 78.8 % of control; that for “CTTACCATCCTATCTTC (sugars l3 d11 l3, PS)”, 87 % of control. Take CGTTGCTAAGATCCAG (sugars l3 d10 l3, PS): the calcium oscillation score is 9.04 % of control. In the case of CCATTTTCCATATAATT (sugars l4 d9 l4, PS), the calcium oscillation score was 76.5 % of control. With TGATCACCCTAAACCA (sugars l3 d10 l3, PS), the calcium oscillation score was 118 % of control.

Consider CTCCTAATTTTGCACT (sugars l4 d10 l2, PS), for which the calcium oscillation score is 44.2 % of control. Turning to “CCCAGAATTCTAACTAT (sugars l4 d11 l2, PS)”, the calcium oscillation score is 77 % of control.

As for TCCTTCTAAGTACAAT (sugars l4 d8 l4, PS), the calcium oscillation score was 54.1 % of control.

Regarding CCCTTAATTTCACCCT (sugars l3 d10 l3, PS), the calcium oscillation score was 80.9 % of control. In the case of “CCATTTTCACTGTTCACA (sugars l2 d14 l2, PS)” it was 86.3 % of control; in that of “TTATTTATTCTTTTTATTA (sugars l4 d11 l4, PS)”, 45.2 % of control. In the case of “TCAACTCTTAGCATCCAC (sugars l2 d13 l3, PS)” it was 50 % of control; in that of GATACCCTTCCTCAGA (sugars l2 d12 l2, PS), 30.9 % of control; in that of “TCCCAACTCTTTGAACAC (sugars l3 d13 l2, PS)”, 83.5 % of control. TCTCGCGGAAGGTC (sugars l3 d8 l3, PS): the calcium oscillation score is 75.7 % of control. On to GTAGACTATTTGCA (sugars l3 d8 l3, PS), for which the calcium oscillation score is 105 % of control.

As for “CTCCCTTTAATGCCAGGCCC (sugars l3 d14 l3, PS)”, the calcium oscillation score is 20.1 % of control. As to “GTCTTCCTGAAGGACACCTG (sugars l3 d14 l3, PS)”, the calcium oscillation score was 0 % of control.

Source of the values: the OligoGym collection.
